According to US8211463B2, “Use of glycolipids as adjuvants” (Helmholtz-Zentrum Fuer Infektionsforschung GmbH, priority 2006, dated 2012):

Columns and labels:
[1] = tested on: spleen cells of immunized mice; assay: Splenocyte proliferation ([3H]thymidine incorporation) after in vitro restimulation with β-Gal; assay type: in vivo, Balb/c mice; settings: i.n.
Method: (§1) Co-administration of β-Gal with 10 μg glycolipids 1, 5 and 6 induced a strong cellular immune responses against the β-Gal antigen in Balb/c mice. Balb/c mice were immunized by the i.n. or s.c. route with β-Gal alone or together with glycolipids 1, 5 and 6 three times at 2-wk intervals. 10 days after the final immunization, the immunized mice were sacrificed. Splenocytes of mice immunized by the i.n. (A) and s.c. (B) route were collected and cultured with different concentrations of the β-Gal-Protein for 4 days. […] Curves represent [^3H]thymidine incorporation (counts per minute, cpm) and Stimulation index (SI) in each group. Each group consists of five mice. Data are representative of three separate experiments.
as §1, with “with 20 up to 30” for “with 10”, “glycolipids” for “glycolipids 1,”, “represent [3H]thymidine incorpoaration” for “represent [^3H]thymidine incorporation”
Experimental protocol: Spleens were removed and pooled for analysis of cellular immune responses. Cells were grown in RPMI 1640 supplemented with 10% fetal calf serum, 100 U/ml of penicillin, 50 μg/ml of streptomycin, 5×10^−5 M 2-mercaptoethanol and 1 mM L-glutamine (GIBCO BRL, Karlsruhe, Germany) and maintained at 37° C. in a humidified 5% CO2 atmosphere. Spleen cell suspensions were adjusted to 5×10^6 cells/ml in complete medium, cells were seeded with 100 μl per well in a flat-bottomed 96-well microtiter plate (Nunc) and plates were incubated for 4 days. Unstimulated spleen cells were incubated in the presence of different concentrations of the new adjuvants to analyze the in vitro stimulation capacity of glycolipids 1, 5 or 6, respectively. T cellmediated immune responses were investigated at day 38 by measuring the proliferation of cells recovered from spleens after in vitro restimulation with β-Gal. Said spleen cells were obtained from vaccinated mice—said mice where immunized as described in Example 2—and incubated in the presence of different concentrations of the soluble β-Gal antigen. Each concentration was tested in triplicates. During the final 18 h of culture, 1 μCi of [^3H]thymidine (Amersham International, Freiburg, Germany) was added to each well. Cells were then harvested on paper filters (Filtermat A; Wallac, Freiburg, Germany) by using a cell harvester (Inotech, Wohlen, Switzerland), and the amount of incorporated [^3H]thymidine into the DNA of proliferating cells was determined by a β-scintillation counter (Wallac 1450, Micro-Trilux). The results are expressed as the arithmetic mean of [^3H]thymidine uptake in cpm.

[2] = tested on: IFN-γ, IL-2, IL-4, IL-5, and TNFα; assay: Cytometric bead array of cytokines in supernatants of restimulated spleen cells; assay type: in vivo, Balb/c mice; settings: i.n., 10 μg glycolipid, restimulation with β-Gal antigen for 4 days
Method: Co-administration of β-Gal with 10 μg glycolipid 5 represented both Th1 and Th2 cytokine profiles activities in Balb/c mice. 10 days after the final immunization, the immunized Balb/c mice were sacrificed. A total of 5×10^6 cells/ml were stimulated with different concentrations of the β-Gal antigen for 4 days, and the levels of IFNγ and IL-4 in the supernatant were examined by the BD Cytometric bead array. Cytokine production of the spleen cells were analyzed using BD CBA kit according to the manufacturer's instructions. […] Curves represent cytokine concentration (pg/ml) and Stimulation index (SI) in response to enhanced antigen concentration in each group. Each group consists of five mice. Data are representative of two separate experiments.
To characterize the type of Th response stimulated following immunization, the content of IFN-γ, IL-2, IL-4, IL-5, and TNFα was measured in supernatants from in vitro re-stimulated spleen cells (FIGS. 8 and 9) by the Cytometric Bead Array. Culture supernatants from proliferating cells were collected on days 2 and 4, and stored at −70° C. Determinations of IFN-γ, TNFα, IL-2, IL-4, and IL-5 were performed by cytometric bead array analysis using the commercial kit from BectonDickinson, according to the manufacturer's instructions. […] The probes were analyzed subsequently by flow cytometry as described in the protocol of BD.

[3] = 10 μg glycolipid, restimulation with β-Gal for 4 days

SMILES | Stimulation index (SI), [3H]thymidine incorporation of spleen cells [1, 3] | expression of proinflammatory (TNFα), Th1 (IFNγ and IL-2) and Th2 (IL-5) cytokines by spleen cells [2] | Stimulation index (SI), [3H]thymidine incorporation of spleen cells ([1]; 20 up to 30 μg glycolipid, restimulation with β-Gal for 4 days) | Stimulation index (SI), [3H]thymidine incorporation of spleen cells ([1]; highest concentration (30 μg per animal))
CCCCCCCC/C=C\CCCCCCCCOCC(COCCCCCCCC/C=C\CCCCCCCC)O[C@@H]1O[C@H](CO)[C@@H](O[C@H]2O[C@H](CO)[C@@H](O)[C@H](O)[C@H]2O)[C@H](O)[C@H]1O (relative stereo) [glycolipid 1, 1,3-Di-O[cis-9-octadecenyl]-2-O-[4′-O-(α-D-glycopyranosyl)-β-D-glycopyranosyl]-sn-glycerol] | no effect |  |  | 
CCCCCCCCCCCCCCOCC(COCCCCCCCCCCCCCC)O[C@@H]1O[C@H](CO)[C@@H](O[C@H]2O[C@H](CO)[C@@H](O)[C@H](O)[C@H]2O)[C@H](O)[C@H]1O [glycolipid 5, 1,3-Di-O-tetradecyl-2-O-[4′-O-(α-D-glucopyranosyl)-β-D-glucopyranosyl]-sn-glycerol] |  | enhanced expression |  | 
CCCCCCCCCCCCCCOCC(COCCCCCCCCCCCCCC)O[C@@H]1O[C@H](CO[C@H]2O[C@H](CO)[C@H](O)[C@H](O)[C@H]2O)[C@@H](O)[C@H](O)[C@H]1O [glycolipid 6, 1,3-di-O-tetradecyl-2-O-[6′-O-(α-D-galactopyranosyl)-β-D-glucopyranosyl]-sn-glycerol] | no effect |  | strong responses | > 3
